# Measurements taken from patent US7964629B2, “Inhibitors of isoprenylcysteine carboxyl methyltransferase” (Duke Universtiy, priority 2005, dated 2011).
# Target: T1, recombinant human Icmt (Homo sapiens, UniProt O60725)
# T1 construct: recombinant baculovirus containing the entire open reading frame of the human Icmt cDNA; made in house; host or cells: Sf9 insect cells (baculovirus); membrane fraction used
# Assay: Icmt assay: [3H]methyl incorporation from [3H]AdoMet into BFC
# Format: biochemical
# Conditions: not given
# T1 sequence (O60725 whole entry): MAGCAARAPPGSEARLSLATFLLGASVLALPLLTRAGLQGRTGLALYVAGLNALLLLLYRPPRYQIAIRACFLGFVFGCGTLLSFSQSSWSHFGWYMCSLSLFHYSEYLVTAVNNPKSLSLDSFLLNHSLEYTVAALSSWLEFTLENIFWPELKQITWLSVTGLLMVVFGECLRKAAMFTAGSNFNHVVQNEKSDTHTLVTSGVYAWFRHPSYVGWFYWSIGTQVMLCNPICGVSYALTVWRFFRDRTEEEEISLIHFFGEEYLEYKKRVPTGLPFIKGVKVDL
row,Compound,IC50 [µM]
1,CCOc1cccc(-c2ccc3c(c2)c(CC=O)cn3Cc2cccc(C(F)(F)F)c2)c1 [9F10/A119038],6

# Same assay, conditions: Table 1, R1 substituent x scaffold matrix; read-out: IC50
row,IC50 [µM],Compound
1,13.7 ± 0.3,CC(C)Cn1cc(CC(N)=O)c2cc(-c3cccc(F)c3)ccc21 [(a1)/drawing 3]

# Same assay, conditions: Table 2, no pre-incubation; read-out: IC50
row,Compound,IC50 [µM]
1,CC(C)(C)c1ccc(Cn2cc(CC=O)c3cc(-c4cc(C(F)(F)F)cc(C(F)(F)F)c4)ccc32)cc1 [9B4/A119024],4
2,CCOc1cccc(-c2ccc3c(c2)c(CC=O)cn3Cc2ccc(C(C)(C)C)cc2)c1 [9B6/A119030],3
3,O=CCc1cn(Cc2ccccc2)c2ccc(-c3ccc(Oc4ccccc4)cc3)cc12 [9B8/A119007],7
4,CC(C)(C)c1ccc(Cn2cc(CC=O)c3cc(-c4cccc(F)c4)ccc32)cc1 [9B12/A119029],4
5,O=CCc1cn(CCCOc2ccccc2)c2ccc(-c3ccc(Oc4ccccc4)cc3)cc12 [9B20/A119055],14
6,CC(C)Cn1cc(CC=O)c2cc(-c3cc(C(F)(F)F)cc(C(F)(F)F)c3)ccc21 [9B22/A119064],8
7,O=CCc1cn(CCCOc2ccccc2)c2ccc(-c3cc(C(F)(F)F)cc(C(F)(F)F)c3)cc12 [9D10/A119048],> 30
8,O=CCc1cn(Cc2cccc(C(F)(F)F)c2)c2ccc(-c3ccc(Oc4ccccc4)cc3)cc12 [9D12/A119039],7
9,CCCCCCCCn1cc(CC=O)c2cc(-c3ccc(Oc4ccccc4)cc3)ccc21 [9D18/A119047],5
10,CCCCCCn1cc(CC=O)c2cc(-c3ccc(Oc4ccccc4)cc3)ccc21 [9D20/A110023],20
11,COc1ccccc1-c1ccc2c(c1)c(CC=O)cn2CC1CC1 [9F8/A119059],> 30
12,CCCCCCn1cc(CC=O)c2cc(-c3ccc(F)c(Cl)c3)ccc21 [9F18/A119017],7
13,CCCCCCCCn1cc(CC=O)c2cc(-c3cccc(OCC)c3)ccc21 [9F20/A119046],2
14,Cc1ccc(-c2ccc3c(c2)c(CC=O)cn3Cc2cccc(C(F)(F)F)c2)cc1 [9H4/A119034],7
15,O=CCc1cn(Cc2ccccc2)c2ccc(-c3cc(C(F)(F)F)cc(C(F)(F)F)c3)cc12 [9H6/A119000],18
16,CCCCCCn1cc(CC=O)c2cc(-c3cccc(OCC)c3)ccc21 [9H10/A119022],7
17,O=CCc1cn(CC2CC2)c2ccc(-c3cc(C(F)(F)F)cc(C(F)(F)F)c3)cc12 [9H12/A119056],20
18,O=CCc1cn(Cc2cccc(C(F)(F)F)c2)c2ccc(-c3ccc(F)c(Cl)c3)cc12 [9H14/A119033],6
19,O=CCc1cn(CC2CC2)c2ccc(-c3ccc(F)c(Cl)c3)cc12 [9J8/A119057],> 30
20,CCCCCCCCn1cc(CC=O)c2cc(-c3ccccc3OC)ccc21 [9J16/A119043],5
21,CCCCCCCCn1cc(CC=O)c2cc(-c3cccc(F)c3)ccc21 [9J18/A119045],3

# Other lines, results leading:
row,IC50 [µM],Compound
1,7,CCCCCCn1cc(CC=O)c2cc(-c3cccc(C)c3)ccc21 [9J22/A119020]
2,23,CCCCCCn1cc(CC=O)c2cc(-c3ccc(C)cc3)ccc21 [9L4/A119018]
3,9,CCCCCCCCn1cc(CC=O)c2cc(-c3ccc(C)cc3)ccc21 [9L6/A119042]
4,1,CCCCCCCCn1cc(CC=O)c2cc(-c3ccc(F)c(Cl)c3)ccc21 [9L8/A119041]
5,> 30,O=CCc1cn(Cc2cccc(C(F)(F)F)c2)c2ccc(-c3cc(C(F)(F)F)cc(C(F)(F)F)c3)cc12 [9L10/A119032]
6,> 30,CCCCCCCCn1cc(CC=O)c2cc(-c3cc(C(F)(F)F)cc(C(F)(F)F)c3)ccc21 [9L22/A119040]
7,5,CC(C)(C)c1ccc(Cn2cc(CC=O)c3cc(-c4ccc(F)c(Cl)c4)ccc32)cc1 [9N6/A119025]
8,> 30,Cc1ccc(-c2ccc3c(c2)c(CC=O)cn3CC2CC2)cc1 [9N8/A119058]
9,9,O=CCc1cn(Cc2ccccc2)c2ccc(-c3ccc(F)c(Cl)c3)cc12 [9N10/A119001]
10,18,COc1ccccc1-c1ccc2c(c1)c(CC=O)cn2Cc1ccc2ccccc2c1 [9N12/A119075]
11,20,O=CCc1cn(Cc2ccc3ccccc3c2)c2ccc(-c3ccc(Oc4ccccc4)cc3)cc12 [9N14/A119079]
12,20,Cc1cccc(-c2ccc3c(c2)c(CC=O)cn3Cc2ccc3ccccc3c2)c1 [9N22/A119076]

# Same assay, conditions: Table 2, pre-incubation of enzyme with inhibitor; read-out: IC50 pre-inc
row,IC50 [µM],Compound
1,< 0.3,CCCCCCCCn1cc(CC=O)c2cc(-c3cccc(F)c3)ccc21 [9J18/A119045]

# Same assay, conditions: Table 3, pre-incubation with Icmt for 30 min at 37° C.; read-out: IC50 PI (converted)
row,IC50 [µM],Compound
1,17.7,Cc1cccc(-c2ccc3c(c2)c(CC(N)=O)cn3CC(C)C)c1 [(a1)/drawing 2]
2,9.5,Cc1cccc(-c2ccc3c(c2)c(CC(N)=O)cn3CC2CC2)c1 [(b1)/drawing 2]
3,1.7,CCCCCCn1cc(CC(N)=O)c2cc(-c3cccc(C)c3)ccc21 [(c1)/drawing 2]
4,2.4,Cc1cccc(-c2ccc3c(c2)c(CC(N)=O)cn3Cc2ccccc2)c1 [(e1)/drawing 2]
5,0.71,Cc1cccc(-c2ccc3c(c2)c(CC(N)=O)cn3Cc2cccc(C(F)(F)F)c2)c1 [(g1)/drawing 2]

# Same assay, conditions: standard in vitro methylation assay; read-out: Km as Icmt substrate
row,Compound,Km [µM]
1,"biotin-S-farnesyl-L-cysteine [BFC, reference compound]",2.1 ± 0.4
